Data from patent US20210045385A1, “PYRIDAZINONE-SUBSTITUTED KETOXIMES AS HERBICIDES” (FMC Corporation, priority 2018, published 2021).

What was measured:
kochia (Kochia scoparia) [1] = experiment: Test A preemergence, visual plant response rating; type: in vivo
Procedure, shortened: (§1)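 Preemergence: seeds in loam/sand blend given directed soil spray of compound in non-phytotoxic solvent with surfactant. Postemergence: plants 2–10 cm, one- to two-leaf stage, sprayed with same formulation. Visual injury rated vs untreated controls after ~10 days in greenhouse, 0 (no effect) to 100 (complete control).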

[2] = system: pigweed (Amaranthus retroflexus); experiment: Test A preemergence, visual plant response rating; type: in vivo
Procedure, shortened: as §1

[3] = system: barnyardgrass (Echinochloa crus-galli); experiment: Test A preemergence, visual plant response rating; type: in vivo
Procedure, shortened: as §1

[4] = system: foxtail, giant (giant foxtail, Setaria faberii); experiment: Test A preemergence, visual plant response rating; type: in vivo
Procedure, shortened: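 Ratings 0–100 (100 = complete control), visual, vs untreated controls at ~10 days. Application pre- or postemergence; solvent mixture with surfactant; loam/sand medium.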

[5] = system: Italian ryegrass (Lolium multiflorum); experiment: Test A preemergence, visual plant response rating; type: in vivo
Procedure, shortened: as §1

kochia (Kochia scoparia) [6] = experiment: Test A postemergence, visual plant response rating; type: in vivo
Procedure, shortened: as §1

[7] = system: ragweed (common ragweed, Ambrosia elatior); experiment: Test A postemergence, visual plant response rating; type: in vivo
Procedure, shortened: as §1

corn (Zea mays) = experiment: Test A postemergence, visual plant response rating; type: in vivo
Procedure, shortened: as §1

[8] = system: pigweed (Amaranthus retroflexus); experiment: Test A postemergence, visual plant response rating; type: in vivo
Procedure, shortened: as §1

[9] = system: barnyardgrass (Echinochloa crus-galli); experiment: Test A postemergence, visual plant response rating; type: in vivo
Procedure, shortened: as §1

[10] = system: blackgrass (Alopecurus myosuroides); experiment: Test A postemergence, visual plant response rating; type: in vivo
Procedure, shortened: as §1

[11] = system: wheat (Triticum aestivum); experiment: Test A postemergence, visual plant response rating; type: in vivo
Procedure, shortened: as §1

[12] = system: foxtail, giant (giant foxtail, Setaria faberii); experiment: Test A postemergence, visual plant response rating; type: in vivo
Procedure, shortened: as §1

[13] = system: galium (catchweed bedstraw, Galium aparine); experiment: Test A postemergence, visual plant response rating; type: in vivo
Procedure, shortened: as §1

[14] = system: Italian ryegrass (Lolium multiflorum); experiment: Test A postemergence, visual plant response rating; type: in vivo
Procedure, shortened: as §1

rice (Oryza sativa) = experiment: Test B flooded paddy test, visual plant response rating; type: in vivo; settings: 250 g ai/ha, Flood, applied to paddy water, 2-leaf stage, evaluated after 13 to 15 days
Procedure, shortened: (§2)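 Rice, umbrella sedge, ducksalad and barnyardgrass grown to 2-leaf stage; pots flooded 3 cm above soil and compound applied directly to paddy water, depth maintained.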

[15] = system: sedge, umbrella (small-flower umbrella sedge, Cyperus difformis); experiment: as above; type: in vivo; settings: 250 g ai/ha, Flood, applied to paddy water, 2-leaf stage, evaluated after 13 to 15 days
Procedure, shortened: as §2

[16] = system: barnyardgrass (Echinochloa crus-galli); experiment: as above; type: in vivo; settings: 250 g ai/ha, Flood, applied to paddy water, 2-leaf stage, evaluated after 13 to 15 days
Procedure, shortened: as §2

[17] = system: ducksalad (Heteranhera limosa); experiment: as above; type: in vivo; settings: 250 g ai/ha, Flood, applied to paddy water, 2-leaf stage, evaluated after 13 to 15 days
Procedure, shortened: as §2

[18] = 125 g ai/ha, preemergence, 0 to 100 scale, 0 no effect, 100 complete control
[19] = 500 g ai/ha Preemergence, approx. 10 days
[20] = 500 g ai/ha, postemergence, 0 is no effect, 100 is complete control
[21] = Postemergence, 125 g ai/ha, 0 to 100 scale (0 no effect, 100 complete control)

CO/N=C(\c1c(O)c(C)nn(C)c1=O)c1cc(Br)cc2ccccc12 [Compound 91, 4-[(Z)-(3-bromo-1-naphthalenyl)(methoxyimino)methyl]-5-hydroxy-2,6-dimethyl-3(2H)-pyridazinone]
30: Corn plant response rating (corn (Zea mays); [21])
65: Plant response rating, Barnyardgrass (0 to 100 scale, 0 is no effect, 100 is complete control) [16]
60: Kochia plant response rating (kochia (Kochia scoparia) [1]; [18]) | Kochia plant response rating (0 to 100 scale) (kochia (Kochia scoparia) [1]; [19]) | Kochia plant response rating (kochia (Kochia scoparia) [6]; [21]) | Plant response rating, Sedge, Umbrella (0 to 100 scale, 0 is no effect, 100 is complete control) [15] | Plant response rating, Ducksalad (0 to 100 scale, 0 is no effect, 100 is complete control) [17]
90: Pigweed plant response rating (0 to 100 scale) [8, 20] | Foxtail, Giant plant response rating (0 to 100 scale) [12, 20]
20: Plant response rating, Rice (0 to 100 scale, 0 is no effect, 100 is complete control) (rice (Oryza sativa))
50: Wheat plant response rating [11, 21]
70: Corn plant response rating (0 to 100 scale) (corn (Zea mays); [20])
129 to 133 °C: melting point
100: Pigweed plant response rating [2, 18] | Pigweed plant response rating (0 to 100 scale) [2, 19] | Barnyardgrass plant response rating [3, 18] | Barnyardgrass plant response rating (0 to 100 scale) [3, 19] | Foxtail, Giant plant response rating [4, 18] | Foxtail, Giant plant response rating (0 to 100 scale) [4, 19] | Ryegrass, Italian plant response rating (0 to 100 scale) [5, 19] | Ragweed plant response rating (0 to 100 scale) [7, 20] | Ragweed plant response rating [7, 21] | Blackgrass plant response rating (0 to 100 scale) [10, 20] | Blackgrass plant response rating [10, 21] | Galium plant response rating (0 to 100 scale) [13, 20] | Galium plant response rating [13, 21] | Ryegrass, Italian plant response rating (0 to 100 scale) [14, 20] | Ryegrass, Italian plant response rating [14, 21]
80: Ryegrass, Italian plant response rating [5, 18] | Kochia plant response rating (0 to 100 scale) (kochia (Kochia scoparia) [6]; [20]) | Pigweed plant response rating [8, 21] | Barnyardgrass plant response rating (0 to 100 scale) [9, 20] | Barnyardgrass plant response rating [9, 21] | Wheat plant response rating (0 to 100 scale) [11, 20] | Foxtail, Giant plant response rating [12, 21]
